{"source": "patent EP3597653A1", "about": "“CYCLIC INHIBITORS OF HEPATITIS B VIRUS” (IRBM S.P.A., priority 2018, dated 2020)", "data": [{"system": "HBV", "experiment": "HBV inhibition assay in HepAD38 cells (extracellular HBV DNA by direct qPCR)", "type": "cell-based", "details": "Hepatitis B virus, 8-point dose-response curve, 96 hours, read-out: HBV inh EC50", "method_in_brief": "(§1)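 HepAD38 cells (HepG2, tetracycline-off HBV) induced in tetracycline-free medium, treated 96 h at 37 °C with compound, 0.5% DMSO. Extracellular HBV DNA quantified by direct SYBR qPCR of lysed supernatant, as % of untreated; EC50 from 8-point 1:2 curves; cytotoxicity by CellTiter-Blue.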", "units": {"EC50": "µM"}, "values": [{"compound": "O=C(Nc1cc(F)c(F)c(F)c1)c1ccc2c(c1)S(=O)(=O)N[C@]1(N2)C(=O)Nc2ccccc21", "note": "(single isomer, unassigned) [Example E129]", "EC50": "> 1"}, {"compound": "O=C(Nc1cc(F)c(F)c(F)c1)c1ccc2c(c1)S(=O)(=O)NCCN2", "note": "[Example E94, N-(3,4,5-trifluorophenyl)-2,3,4,5-tetrahydrobenzo[f][1,2,5]thiadiazepine-8-carboxamide 1,1-dioxide]", "EC50": "> 1"}, {"compound": "Cn1cncc1C1Nc2ccc(C(=O)Nc3cc(F)c(F)c(F)c3)cc2S(=O)(=O)N1", "note": "(stereo not drawn) [Example E37, 3-(1-methyl-1H-imidazol-5-yl)-N-(3,4,5-trifluorophenyl)-3,4-dihydro-2H-benzo[e][1,2,4]thiadiazine-7-carboxamide 1,1-dioxide]", "EC50": "< 1"}]}, {"system": "HBV", "experiment": "HBV inhibition assay in HepAD38 cells (extracellular HBV DNA by direct qPCR)", "type": "cell-based", "details": "Hepatitis B virus, compound at 0.1 µM, 96 hours, relative to non-treated reference, read-out: Anti HBV Activity (conc µM)", "method_in_brief": "as §1", "units": {"inhibition at 0.1 µM": "%"}, "values": [{"compound": "Cc1cc2c(cc1C(=O)Nc1cc(F)c(F)c(F)c1)S(=O)(=O)N([C@H]1CC[C@H](O)CC1)C(=O)N2", "note": "[Example E122, trans-2-(4-hydroxycyclohexyl)-6-methyl-3-oxo-N-(3,4,5-trifluorophenyl)-3,4-dihydro-2H-benzo[e][1,2,4]thiadiazine-7-carboxamide 1,1-dioxide]", "inhibition at 0.1 µM": "> 50"}, {"compound": "O=C(Nc1cc(F)c(F)c(F)c1)c1ccc2c(c1)S(=O)(=O)N([C@H]1CCNC1)C(=O)N2", "note": "[Example E84, (S)-3-oxo-2-(pyrrolidin-3-yl)-N-(3,4,5-trifluorophenyl)-3,4-dihydro-2H-benzo[e][1,2,4]thiadiazine-7-carboxamide 1,1-dioxide]", "inhibition at 0.1 µM": "< 50"}]}, {"system": "HBV", "experiment": "HBV inhibition assay in HepAD38 cells (extracellular HBV DNA by direct qPCR)", "type": "cell-based", "details": "Hepatitis B virus, compound at 0.5 µM, 96 hours, relative to non-treated reference, read-out: Anti HBV Activity (conc µM)", "method_in_brief": "as §1", "units": {"inhibition at 0.5 µM": "%"}, "values": [{"compound": "O=C(Nc1cc(F)c(F)c(F)c1)c1ccc2c(c1)S(=O)(=O)N([C@H]1CC[C@@H](O)CC1)CN2", "note": "[Example E59, cis-2-(4-hydroxycyclohexyl)-N-(3,4,5-trifluorophenyl)-3,4-dihydro-2H-benzo[e][1,2,4]thiadiazine-7-carboxamide 1,1-dioxide]", "inhibition at 0.5 µM": "< 50"}, {"compound": "O=C(Nc1cc(F)c(F)c(F)c1)c1ccc2c(c1)S(=O)(=O)N(C1CC(O)C1)C(=O)N2", "note": "(stereo not drawn) [Example E86, 2-(3-hydroxycyclobutyl)-3-oxo-N-(3,4,5-trifluorophenyl)-3,4-dihydro-2H-benzo[e][1,2,4]thiadiazine-7-carboxamide 1,1-dioxide]", "inhibition at 0.5 µM": "> 50"}, {"compound": "O=C(Nc1cc(F)c(F)c(F)c1)c1ccc2c(c1)S(=O)(=O)N([C@H]1C[C@H](O)C1)C(=O)N2", "note": "[Example E125, Trans-2(3-hydroxycyclobutyl)-3-oxo-N-(3,4,5-trifluorophenyl)-3,4-dihydro-2H-benzo[e][1,2,4]thiadiazine-7-carboxamide 1,1-dioxide]", "inhibition at 0.5 µM": "> 50"}, {"compound": "O=C(Nc1cc(F)c(F)c(F)c1)c1ccc2c(c1)S(=O)(=O)N(C1CCNCC1)CN2", "note": "[Example E61, 2-(piperidin-4-yl)-N-(3,4,5-trifluorophenyl)-3,4-dihydro-2H-benzo[e][1,2,4]thiadiazine-7-carboxamide 1,1-dioxide]", "inhibition at 0.5 µM": "< 50"}, {"compound": "C[C@H](O)C1=NS(=O)(=O)c2cc(C(=O)Nc3cc(F)c(F)c(F)c3)ccc2N1", "note": "[Example E25, (S)-3-(1-hydroxyethyl)-N-(3,4,5-trifluorophenyl)-4H-benzo[e][1,2,4]thiadiazine-7-carboxamide1,1-dioxide]", "inhibition at 0.5 µM": "< 50"}, {"compound": "O=C(Nc1cc(F)c(F)c(F)c1)c1ccc2c(c1)S(=O)(=O)NC(CCO)N2", "note": "(stereo not drawn) [Example E22, 3-(2-hydroxyethyl)-N-(3,4,5-trifluorophenyl)-3,4-dihydro-2H-benzo[e][1,2,4]thiadiazine-7-carboxamide 1,1-dioxide]", "inhibition at 0.5 µM": "> 50"}]}, {"system": "HBV", "experiment": "HBV inhibition assay in HepAD38 cells (extracellular HBV DNA by direct qPCR)", "type": "cell-based", "details": "Hepatitis B virus, compound at 1 µM, 96 hours, relative to non-treated reference, read-out: Anti HBV Activity (conc µM)", "method_in_brief": "as §1", "units": {"inhibition at 1 µM": "%"}, "values": [{"compound": "Cc1cc(C(=O)Nc2cc(F)c(F)c(F)c2)cc2c1NC(c1nccs1)NS2(=O)=O", "note": "(stereo not drawn) [Example E89, 5-methyl-3-(thiazol-2-yl)-N-(3,4,5-trifluorophenyl)-3,4-dihydro-2H-benzo[e][1,2,4]thiadiazine-7-carboxamide 1,1-dioxide]", "inhibition at 1 µM": "> 50"}, {"compound": "N#Cc1cc(NC(=O)c2ccc3c(c2)S(=O)(=O)NC=N3)ccc1F", "note": "[Example E90, N-(3-cyano-4-fluorophenyl)-2H-benzo[e][1,2,4]thiadiazine-7-carboxamide 1,1-dioxide]", "inhibition at 1 µM": "< 50"}, {"compound": "CN1CNS(=O)(=O)c2cc(C(=O)Nc3cc(F)c(F)c(F)c3)ccc21", "note": "[Example E3, 4-methyl-N-(3,4,5-trifluorophenyl)-3,4-dihydro-2H-benzo[e][1,2,4]thiadiazine-7-carboxamide 1,1-dioxide]", "inhibition at 1 µM": "< 50"}, {"compound": "NC1=Nc2ccc(C(=O)Nc3cc(F)c(F)c(F)c3)cc2S(=O)(=O)N1", "note": "[Example E69, 3-amino-N-(3,4,5-trifluorophenyl)-2H-benzo[e][1,2,4]thiadiazine-7-carboxamide 1,1-dioxide]", "inhibition at 1 µM": "< 50"}, {"compound": "O=C(Nc1cc(F)c(F)c(F)c1)c1ccc2c(c1)S(=O)(=O)N(CCO)CN2", "note": "[Example E62, 2-(2-hydroxyethyl)-N-(3,4,5-trifluorophenyl)-3,4-dihydro-2H-benzo[e][1,2,4]thiadiazine-7-carboxamide 1,1-dioxide]", "inhibition at 1 µM": "< 50"}, {"compound": "O=C(Nc1cc(F)c(F)c(F)c1)c1ccc2c(c1)S(=O)(=O)N1CC[C@@H](C1)N2", "note": "[Example E105, (5S)-N-(3,4,5-trifluorophenyl)-3,4,5,6-tetrahydro-2,5-methanobenzo[g][1,2,6]thiadiazocine-9-carboxamide 1,1-dioxide]", "inhibition at 1 µM": "< 50"}, {"compound": "O=C(Nc1cc(F)c(F)c(F)c1)c1ccc2c(c1)S(=O)(=O)N1CCCC[C@H]1CN2", "note": "[Example E103, (S)-N-(3,4,5-trifluorophenyl)-1,3,4,11,12,12a-hexahydro-2H-benzo[f]pyrido[1,2-b][1,2,5]thiadiazepine-8-carboxamide 6,6-dioxide]", "inhibition at 1 µM": "< 50"}, {"compound": "O=C(Nc1cc(F)c(F)c(F)c1)c1ccc2c(c1)S(=O)(=O)N1CCOCC1CN2", "note": "(stereo not drawn) [Example E108, N-(3,4,5-trifluorophenyl)-1,3,4,11,12,12a-hexahydrobenzo[f][1,4]oxazino[4,3-b][1,2,5]thiadiazepine-8-carboxamide 6,6-dioxide]", "inhibition at 1 µM": "< 50"}, {"compound": "O=C(Nc1cc(F)c(F)c(F)c1)c1cc2c(cc1Cl)NC(c1nccs1)NS2(=O)=O", "note": "(stereo not drawn) [Example E36, 6-chloro-3-(thiazol-2-yl)-N-(3,4,5-trifluorophenyl)-3,4-dihydro-2H-benzo[e][1,2,4]thiadiazine-7-carboxamide 1,1-dioxide]", "inhibition at 1 µM": "> 50"}, {"compound": "CC1(C)Nc2ccc(C(=O)Nc3ccc(F)c(F)c3)cc2S(=O)(=O)N1", "note": "[Example E120, N-(3,4-difluorophenyl)-3,3-dimethyl-3,4-dihydro-2H-benzo[e][1,2,4]thiadiazine-7-carboxamide 1,1-dioxide]", "inhibition at 1 µM": "> 50"}, {"compound": "O=C(Nc1cc(F)c(F)c(F)c1)c1ccc2c(c1)S(=O)(=O)N1CCCC[C@@H]1CO2", "note": "[Example E112, (R)-N-(3,4,5-trifluorophenyl)-1,2,3,4,12,12a-hexahydrobenzo[b]pyrido[1,2-e][1,4,5]oxathiazepine-8-carboxamide 6,6-dioxide]", "inhibition at 1 µM": "< 50"}, {"compound": "CN1C=NS(=O)(=O)c2cc(C(=O)Nc3cc(F)c(F)c(F)c3)c(F)cc21", "note": "[Example E73, 6-fluoro-4-methyl-N-(3,4,5-trifluorophenyl)-4H-benzo[e][1,2,4]thiadiazine-7-carboxamide 1,1-dioxide]", "inhibition at 1 µM": "< 50"}]}, {"system": "HBV", "experiment": "HBV inhibition assay in HepAD38 cells (extracellular HBV DNA by direct qPCR)", "type": "cell-based", "details": "compound at 1 µM, 96 hours, relative to non-treated reference", "method_in_brief": "as §1", "values": [{"compound": "CN1CCC(N2C(=O)Nc3ccc(C(=O)Nc4cc(F)c(F)c(F)c4)cc3S2(=O)=O)CC1", "note": "[Example E133, 2-(1-methylpiperidin-4-yl)-3-oxo-N-(3,4,5-trifluorophenyl)-3,4-dihydro-2H-benzo[e][1,2,4]thiadiazine-7-carboxamide 1,1-dioxide]", "Anti HBV Activity (conc µM)": "A (1) (HBV inhibition greater than 50% at the concentration indicated in the table)"}]}]}
